# Source: patent US20230142547A1, “COMPOUNDS FOR TREATING OR PREVENTING A CORONAVIRIDAE INFECTION & METHODS AND USES FOR ASSESSING THE OCCURRENCE OF A CORONAVIRIDAE INFECTION” (ABIVAX, priority 2020, published 2023)
# Read-outs that look alike come from different tables or passages of the source.
# How the values were obtained:
# SARS-CoV2 [1] = assay: Inhibition of SARS-CoV2 replication in MucilAir reconstituted human airway epithelium, viral genome by RT-qPCR; assay type: cell-based; details: for effect on SARS-CoV2 replication (in words): daily treatment, increasing concentrations
# SARS-CoV2 [2] = assay: ABX464 in combination with Remdesivir: SARS-CoV2 viral RNA in HAE by RT-qPCR; assay type: cell-based; details: FIG. 3B
# SARS-CoV-2 = assay type: cell-based; details: 48 hours post-infection, FIG. 2
# [3] = test system: human reconstituted airway epithelial model of bronchial origin; assay type: cell-based; details: infected HAE, 48h post-infection
# [4] = Tissue distribution of radioactivity in rat after single oral [14C]-ABX464 (whole-body autoradiography, liquid scintillation counting); assay type: in vivo; details: for concentration of radioactivity, Aortic wall / concentration of radioactivity, Lung / concentration of radioactivity, Myocardium / concentration of radioactivity, Nasal mucosa / concentration of radioactivity, Oesophageal wall / concentration of radioactivity, Tongue / concentration of radioactivity, Blood / concentration of radioactivity, Plasma: male albino rats, single oral 20 mg/kg; for concentration of radioactivity, Blood / concentration of radioactivity, Plasma: liquid scintillation counting
# Experimental: (§1) This study was conducted in order to determine the tissue distribution and rates and routes of excretion of radioactivity in the rat following a single oral administration of [^14C]-ABX464. Analysis was performed using liquid scintillation counting (plasma and excreta) and quantitative whole-body autoradiography.
# (§2) All animals received a single oral administration of [^14C]-ABX464 by oral gavage, at a nominal dose level of 20 mg/kg body weight and a dose volume of approximately 5 mL/kg. The target radioactive dose administered was ca 8 MBq/kg body weight.
# Radioactivity in Blood and Plasma Whilst under terminal anaesthesia, but before freezing, up to 2 mL of blood was obtained from all animals by cardiac puncture and transferred to tubes pre-coated with K2-EDTA. The residual sample was centrifuged in order to obtain plasma. The radioactivity concentration was measured in blood and plasma by liquid scintillation counting.
# For each animal, the legs, tail and whiskers were trimmed off and the frozen carcass set in a block of aqueous 2% (w/v) carboxymethylcellulose. The block was mounted onto the stage of a Leica CM3600 cryomicrotome maintained at ca −20° C. (Leica Microsystems (UK) Ltd) and sagittal sections (nominal thickness 30 μm) were obtained through the carcass to include the following tissues: exorbital lachrymal gland, intra-orbital lachrymal gland, Harderian gland, adrenal gland, thyroid, brain and spinal cord. The sections, mounted on Filmolux 610 Tape (Neschen UK), were freeze-dried in a GVD03 bench-top freeze-drier (Girovac Ltd) and placed in contact with FUJI imaging plates (type BAS-MS, Raytek Scientific Ltd). [^14C]-Blood standards of appropriate activity (also sectioned at a nominal thickness of 30 μm) were placed in contact with all imaging plates.
# After exposure in a copper-lined, lead exposure box for 7 days, the imaging plates were processed using a FUJI FLA-5000 radiography system (Raytek Scientific Ltd). Electronic images were analysed using a PC-based image analysis package (Seescan 2 software, LabLogic Ltd). The carbon-14 standards included with each autoradiogram were used to construct calibration lines over a range of radioactivity concentrations.
# Wherever possible, the maximum area within a single autoradiogram was defined for each tissue for measurement.
# (§3) A suitable scintillation counter was used. Radioassays were performed at least in duplicate. Efficiency correlation curves were prepared and routinely checked by the use of [14-C]toluene and Ultima Gold™ quenched standards (PerkinElmer LAS (UK) Ltd).
# Concentration of radioactivity in sample=C (dpm/g)
# Specific radioactivity of test substance=S (MBq/mg)
# Concentration of radioactivity in sample=(C/60000)/S (μg equiv/g)
# [5] = Rates and routes of excretion of radioactivity in rat after single oral [14C]-ABX464; assay type: in vivo
# Experimental: as §1, §2, §3
# [6] = Severe acute respiratory syndrome coronavirus 2, RTqPCR, mean of duplicates, read-out: % inhibition of viral infection, MEAN
# [7] = Severe acute respiratory syndrome coronavirus 2, RTqPCR, replicate N1, read-out: % inhibition of viral infection, N1
# [8] = Severe acute respiratory syndrome coronavirus 2, RTqPCR, replicate N2, read-out: % inhibition of viral infection, N2
compound,measurement,setting,value
"CCC(CC)COC(=O)[C@H](C)N[P@](=O)(OC[C@H]1O[C@@](C#N)(c2ccc3c(N)ncnn23)[C@H](O)[C@@H]1O)Oc1ccccc1 [Remdesivir, reference compound]",inhibition at 5 µM,"SARS-CoV2 [1]; Severe acute respiratory syndrome coronavirus 2, read-out: % inhibition of viral infection, MEAN",100%
same,inhibition at 5 µM,"SARS-CoV2 [1]; Severe acute respiratory syndrome coronavirus 2, read-out: % inhibition of viral infection, N1",99.9%
same,inhibition at 5 µM,"SARS-CoV2 [1]; Severe acute respiratory syndrome coronavirus 2, read-out: % inhibition of viral infection, N2",100%
same,reduction of viral RNA,"SARS-CoV2 [2]; REM alone (5 μM), values from another experiment",4 log
O=C(O)[C@H]1O[C@@H](N(c2ccc(OC(F)(F)F)cc2)c2ccc3cccc(Cl)c3n2)[C@H](O)[C@@H](O)[C@@H]1O [ABX464-N-Gluc],inhibition at 0.1 µM,SARS-CoV2 [1]; [6],0%
same,inhibition at 0.1 µM,SARS-CoV2 [1]; [7],0%
same,inhibition at 0.1 µM,SARS-CoV2 [1]; [8],0%
same,inhibition at 1 µM,SARS-CoV2 [1]; [6],29%
same,inhibition at 1 µM,SARS-CoV2 [1]; [7],20%
same,inhibition at 1 µM,SARS-CoV2 [1]; [8],38%
same,inhibition at 10 µM,SARS-CoV2 [1]; [6],88%
same,inhibition at 10 µM,SARS-CoV2 [1]; [7],99.9%
same,inhibition at 10 µM,SARS-CoV2 [1]; [8],76%
same,effect on SARS-CoV2 replication (in words),SARS-CoV2 [1],dose-dependent effect
same,TCID50 (in words),SARS-CoV-2,a decrease is also observed
"FC(F)(F)Oc1ccc(Nc2ccc3cccc(Cl)c3n2)cc1 [ABX464, 8-Chloro-N-(4-(trifluoromethoxy)phenyl)quinolin-2-amine]",epithelium integrity measured by TEER (in words),[3],protective effect on the integrity of bronchial epithelium
same,inhibition at 0.1 µM,SARS-CoV2 [1]; [6],32.5%
same,inhibition at 0.1 µM,SARS-CoV2 [1]; [7],26.4%
same,inhibition at 0.1 µM,SARS-CoV2 [1]; [8],38.5%
same,inhibition at 1 µM,SARS-CoV2 [1]; [6],93.2%
same,inhibition at 1 µM,SARS-CoV2 [1]; [7],88.8%
same,inhibition at 1 µM,SARS-CoV2 [1]; [8],97.7%
same,inhibition at 5 µM,"SARS-CoV2 [1]; Severe acute respiratory syndrome coronavirus 2, 5 μM, RTqPCR, mean of duplicates, read-out: % inhibition of viral infection, MEAN",95.5%
same,inhibition at 5 µM,"SARS-CoV2 [1]; Severe acute respiratory syndrome coronavirus 2, 5 μM, RTqPCR, replicate N1, read-out: % inhibition of viral infection, N1",99.4%
same,inhibition at 5 µM,"SARS-CoV2 [1]; Severe acute respiratory syndrome coronavirus 2, 5 μM, RTqPCR, replicate N2, read-out: % inhibition of viral infection, N2",91.7%
same,effect on SARS-CoV2 replication (in words),SARS-CoV2 [1],dose-dependent inhibition of SARS-CoV2 replication
same,"concentration of radioactivity, Aortic wall",[4]; 1 hour,0.337 μg equivalents per gram
same,"concentration of radioactivity, Lung",[4]; 1 hour,1.19 μg equivalents per gram
same,"concentration of radioactivity, Myocardium",[4]; 1 hour,1.28 μg equivalents per gram
same,"concentration of radioactivity, Nasal mucosa",[4]; 1 hour,0.252 μg equivalents per gram
same,"concentration of radioactivity, Oesophageal wall",[4]; 1 hour,1.72 μg equivalents per gram
same,"concentration of radioactivity, Tongue",[4]; 1 hour,0.495 μg equivalents per gram
same,"concentration of radioactivity, Blood",[4]; 1 hour,0.398 μg equivalents per gram
same,"concentration of radioactivity, Plasma",[4]; 1 hour,0.461 μg equivalents per gram
same,"concentration of radioactivity, Aortic wall",[4]; 4 hours,1.59 μg equivalents per gram
same,"concentration of radioactivity, Lung",[4]; 4 hours,1.89 μg equivalents per gram
same,"concentration of radioactivity, Myocardium",[4]; 4 hours,1.45 μg equivalents per gram
same,"concentration of radioactivity, Nasal mucosa",[4]; 4 hours,0.708 μg equivalents per gram
same,"concentration of radioactivity, Oesophageal wall",[4]; 4 hours,2.72 μg equivalents per gram
same,"concentration of radioactivity, Tongue",[4]; 4 hours,1.92 μg equivalents per gram
same,"concentration of radioactivity, Blood",[4]; 4 hours,0.978 μg equivalents per gram
same,"concentration of radioactivity, Plasma",[4]; 4 hours,1.25 μg equivalents per gram
same,"concentration of radioactivity, Aortic wall",[4]; 8 hours,1.74 μg equivalents per gram
same,"concentration of radioactivity, Lung",[4]; 8 hours,1.45 μg equivalents per gram
same,"concentration of radioactivity, Myocardium",[4]; 8 hours,0.677 μg equivalents per gram
same,"concentration of radioactivity, Nasal mucosa",[4]; 8 hours,0.585 μg equivalents per gram
same,"concentration of radioactivity, Oesophageal wall",[4]; 8 hours,0.795 μg equivalents per gram
same,"concentration of radioactivity, Tongue",[4]; 8 hours,0.689 μg equivalents per gram
same,"concentration of radioactivity, Blood",[4]; 8 hours,0.807 μg equivalents per gram
same,"concentration of radioactivity, Plasma",[4]; 8 hours,1.18 μg equivalents per gram
same,"concentration of radioactivity, Aortic wall",[4]; 24 hours,0.129 μg equivalents per gram
same,"concentration of radioactivity, Lung",[4]; 24 hours,0.457 μg equivalents per gram
same,"concentration of radioactivity, Myocardium",[4]; 24 hours,0.143 μg equivalents per gram
same,"concentration of radioactivity, Nasal mucosa",[4]; 24 hours,0.084 μg equivalents per gram
same,"concentration of radioactivity, Oesophageal wall",[4]; 24 hours,0.265 μg equivalents per gram
same,"concentration of radioactivity, Tongue",[4]; 24 hours,0.122 μg equivalents per gram
same,"concentration of radioactivity, Blood",[4]; 24 hours,0.229 μg equivalents per gram
same,"concentration of radioactivity, Plasma",[4]; 24 hours,0.203 μg equivalents per gram
same,increase of affinity of related radioactivity to bind to the cellular partition of blood,"[4]; over the study duration, rat, oral 20 mg/kg",10 fold
same,binding of related material to melanin,"[4]; rat, oral 20 mg/kg",no evidence for the binding
same,radioactivity in the central nervous system / blood-brain barrier,"[4]; rat, oral 20 mg/kg","drug related material crossed the blood-brain barrier, but was subsequently eliminated"
same,systemic and tissue bioavailability by the oral route (in words),"[4]; rat, oral 20 mg/kg",excellent systemic and tissue bioavailability
same,reduction of viral RNA,"SARS-CoV2 [2]; 1 μM of ABX464 alone, HAE, RT-qPCR",1.5 log
same,TCID50 (in words),SARS-CoV-2,dose-dependent decrease of the TCID50
same,radioactivity remaining in carcasses,"[5]; final sampling time of 168 hours, excretion balance phase",less than 0.5 % of the administered dose
same,elimination of radioactivity via faeces,"[5]; rat, oral 20 mg/kg",88%
same,radioactivity excreted via the renal system,"[5]; rat, oral 20 mg/kg",less than 5%
same,total mean recovery of radioactivity,"[5]; rat, oral 20 mg/kg",93%±1.8
same,orally administered dose absorbed,"[5]; rat, oral 20 mg/kg, inferred from excretion",at least 5%
"N#Cc1ccc(Nc2ccc3ccccc3n2)nc1 [ABX300, reference compound]",epithelium integrity measured by TEER (in words),[3],reduction in epithelium integrity
same,% inhibition of viral replication,"SARS-CoV2 [1]; all tested concentrations (10 μM, 1 μM and 0.1 μM)",0%
same,effect on SARS-CoV2 replication (in words),SARS-CoV2 [1],fails to show a marked effect on viral replication
same,TCID50 (in words),SARS-CoV-2,very modest effect on the TCID50
